In patent US20260226402A1, “IMPROVED MICROBIAL GROWTH MEDIA” (Becton, Dickinson and Company, priority 2023, published 2026):

Tests used:
[1] = system: yeast and other microorganisms
Method: (§1) TTD testing was performed using 28 organisms with a target CFU of 10-100 in blood volumes of 0 or 0.5 mL, organism dependent, 3 mL, and 10 mL. The organisms tested are illustrated in FIG. 20. Four different concentrations of iron provided as ferric ammonium citrate (0 g/L, 0.01 g/L, 0.035 g/L, and 0.06 g/L) in the media otherwise as described in Example 1, and three different concentrations of oxygen (47%, 54%, and 60%) were tested. FIG. 21 illustrates the combination of conditions tested. The testing was run in replicates of three. Prior to the day of testing, the bottles were racked and labeled, and the organisms were sub-cultured accordingly. Each organism to be tested was grown overnight on an appropriate plated medium. Each organism was carefully checked for purity. […] The organism is then re-cultured. 0.1 mL of the final organism dilution was dispensed and spread on the appropriate agar for plate counts. Using aseptic technique, each bottle containing 30 ml of microbial growth media was amended with 0, 0.5, 3, or 10 mL of bagged human blood using the appropriate syringe and needle. Paired sets were inoculated with blood from the same donor unit at the same time. The bottles were then inoculated with 0.1 mL of the appropriate organism. After inoculation, the bottles were loaded onto a BACTEC FX instrument using a standard protocol length of 120 hours. Paired bottles were entered into the FX at the same time in adjacent positions. […] The data from each experiment was organized for statistical testing via a general linear model analysis of variance (ANOVA). Blood volumes of 0 or 0.5, 3, and 10 mL were recoded as 0, 3, and 10 mL to help balance the design. Additional models were assessed holding the blood volume constant. FIG. 56 illustrates the results of the ANOVA analyzing the effects of the tested conditions on TTD. FIG. 57 illustrates the results of the ANOVA parameter estimates and prediction equation. There was an expectation that only the yeast category would show a significant effect with the iron addition. Other categories were monitored to ensure no adverse effects.

Candida albicans = assay: TTD testing with varied iron and O2 (Example 2); assay type: cell-based
Method: as §1

Candida glabrata = assay: TTD testing with varied iron and O2 (Example 2); assay type: cell-based
Method: as §1

[2] = iron 0, 0.01, 0.035, 0.06 g/L tested

Q: With O=O [oxygen] as the compound, how does the “optimal gaseous headspace O2 concentration for TTD” value [1] read?
A: about 54%

Q: And the “effect on TTD of increasing oxygen concentration in headspace gas” value ([1]; from 47% to 60% O2)?
A: decreased the TTD

Q: What about the “optimal gaseous headspace O2 concentration for TTD” value (Candida albicans; 47%, 54%, 60% O2 tested) of the same compound?
A: about 54%

Q: And the “effect on TTD of increasing oxygen concentration in headspace gas” value (Candida albicans; from 47% to 60% O2)?
A: decreased the TTD

Q: What about the “optimal gaseous headspace O2 concentration for TTD” value (Candida glabrata; 47%, 54%, 60% O2 tested) of the same compound?
A: about 54%

Q: What about the “effect on TTD of increasing oxygen concentration in headspace gas” value (Candida glabrata; from 47% to 60% O2) of the same compound?
A: decreased the TTD

Q: Which “optimal iron concentration for TTD” value [1, 2] does the source give for ferric ammonium citrate [iron] here?
A: about 0.035 g/L

Q: And the “effect on TTD of increasing iron concentration in the media” value ([1]; iron from 0 to 0.06 g/L, blood 0/0.5, 3, 10 mL)?
A: decreased the TTD

Q: And the “effect of iron on TTD, ANOVA result” value ([1]; yeast category, general linear model ANOVA)?
A: lowers the TTD of yeasts

Q: What about the “optimal iron concentration for TTD” value (Candida albicans; [2]) of the same compound?
A: about 0.035 g/L

Q: What about the “effect on TTD of increasing iron concentration in the media” value (Candida albicans; iron from 0 to 0.06 g/L) of the same compound?
A: decreased the TTD

Q: And the “optimal iron concentration for TTD” value (Candida glabrata; [2])?
A: about 0.035 g/L

Q: And the “effect on TTD of increasing iron concentration in the media” value (Candida glabrata; iron from 0 to 0.06 g/L)?
A: decreased the TTD
